Data set [1] in a line: Tacrolimus blood trough level in the rhesus recipient. It counts as in vivo, rhesus macaque (Macaca mulatta). Conditions: subcutaneously twice per day. On the procedure:
Beginning five days prior to delivery of the cell therapy composition and continuing for 16 weeks after delivery, the rhesus recipient was treated daily with tacrolimus and MMF. Tacrolimus was provided subcutaneously twice per day at a dose yielding a blood trough level of approximately 5-10 ng/mL. MMF was provided orally twice per day, for a total dose of 250 mg MMF per day. If a subject cannot tolerate oral dosing of MMF, MMF can be alternatively provided by intravenous administration. In some cases, if a subject cannot tolerate oral MMF, the subject is administered intravenous MMF until the subject can tolerate oral MMF, at which point the subject is switched from intravenous to oral MMF Immune rejection of the riPSC-CMs 16 weeks after delivery was determined by histopathological analysis.

The subject of a further data set is T cells. The conditions noted are these: relative to CsA; cited from earlier work.
For data set [2] the following is noted: transplant recipients; cited from earlier work.

SMILES strings stand for the structures.

`C=CC[C@@H]1/C=C(\C)C[C@H](C)C[C@H](OC)[C@H]2O[C@@](O)(C(=O)C(=O)N3CCCC[C@H]3C(=O)O[C@H](/C(C)=C/[C@@H]3CC[C@@H](O)[C@H](OC)C3)[C@H](C)[C@@H](O)CC1=O)[C@H](C)C[C@@H]2OC` [Tacrolimus, tacrolimus] yielded a Blood trough level in data set [1] of 5 to 10 ng/mL. Moreover, the “Concentrations giving similar effects to CsA, times lower” value in the data set on T cells is listed as 100 times.

`COc1c(C)c2c(c(O)c1C/C=C(\C)CCC(=O)[O-])C(=O)OC2.[Na+]` [MS, mycophenolate sodium]: in data set [2], the “Safety profile relative to MMF” value is “comparable safety profile” and the “Therapeutic equivalence to MMF” value is recorded as “therapeutically equivalent to MMF”.

The values are drawn from patent US20220296572A1, “IMMUNOSUPPRESSIVE THERAPIES FOR USE WITH CARDIOMYOCYTE CELL THERAPIES, AND ASSOCIATED METHODS AND COMPOSITIONS” (Sana Biotechnology, Inc., priority 2021, published 2022).
